Data published in ChEMBL document CHEMBL5131511, “Design of artificial α-helical peptides targeting both gp41 deep pocket and subpocket as potent HIV-1 fusion inhibitors” (Eur J Med Chem, 2022).
Calls of active or inactive are those of the source. The calls are words filed in the database; no cut-off is given here. Where a SMILES comes first, the peptide text is derived from it. [ ]: non-standard residue; d: D form. The star is where a group is joined. O(cholesteryl) = CC(C)CCC[C@@H](C)[C@H]1CC[C@H]2[C@@H]3CC=C4C[C@@H](O*)CC[C@]4(C)[C@H]3CC[C@]12C; PEG24 = NCCOCCOCCOCCOCCOCCOCCOCCOCCOCCOCCOCCOCCOCCOCCOCCOCCOCCOCCOCCOCCOCCOCCOCCOCCC(=O)O; PEG12 = NCCOCCOCCOCCOCCOCCOCCOCCOCCOCCOCCOCCOCCC(=O)O; PEG4 = NCCOCCOCCOCCOCCC(=O)O

Columns and labels:
[1] = tested on: Human immunodeficiency virus 1; test: Antiviral activity against HIV-1 IIIB (B, X4) assessed as inhibition of viral replication measured after 4 days by ELISA; format: functional, organism-based; conditions: Human immunodeficiency virus 1, IIIB (B, X4), 96 h
[2] = Alpha-helicity of compound in PBS buffer at pH 7.4 at 10 uM incubated for 30 mins by CD spectroscopy relative to control; format: physicochemical; conditions: pH 7.4, 0.5 h
[3] = tested on: Human immunodeficiency virus 1; test: Binding affinity to HIV1 gp41 NHR target surrogate N36 assessed as alpha-helicity at 10 uM incubated for 30 mins by CD spectroscopy (reference value: 26 %)
[4] = tested on: Human immunodeficiency virus 1; test: Binding affinity to HIV1 gp41 NHR target surrogate T21 assessed as alpha-helicity at 10 uM incubated for 30 mins by CD spectroscopy (reference value: 66 %)
[5] = tested on: Human immunodeficiency virus 1; test: Binding affinity to HIV1 gp41 NHR target surrogate N36 assessed as melting temperature at 10 uM incubated for 30 mins by CD spectroscopy
[6] = tested on: Human immunodeficiency virus 1; test: Binding affinity to HIV1 gp41 NHR target surrogate T21 assessed as melting temperature at 10 uM incubated for 30 mins by CD spectroscopy
[7] = tested on: Human immunodeficiency virus 1; test: Antiviral activity against HIV-1 IIIB assessed as inhibition of viral replication measured after 4 days by ELISA; format: functional, organism-based; conditions: Human immunodeficiency virus 1, IIIB, 96 h
[8] = Cytotoxicity against human CEMx174 5.25M7 cells upto 10 uM incubated for 48 hrs by CCK-8 assay; format: toxicity, cell-based; conditions: cemx174 5.25m7, 48 h
MT2 = test: Cytotoxicity against human MT2 cells upto 10 uM incubated for 48 hrs by CCK-8 assay; format: toxicity, cell-based; conditions: mt2, 48 h
[9] = tested on: Human immunodeficiency virus 1; test: Antiviral activity against T20-sensitive HIV-1 D36G assessed as inhibition of viral replication measured after 4 days by ELISA; format: functional, organism-based
[10] = tested on: Human immunodeficiency virus 1; test: Antiviral activity against T20-resistant HIV-1 V38E/N42S assessed as inhibition of viral replication measured after 4 days by ELISA; format: functional, organism-based
[11] = tested on: Human immunodeficiency virus 1; test: Antiviral activity against T20-resistant HIV-1 V38A/N42T assessed as inhibition of viral replication measured after 4 days by ELISA; format: functional, organism-based
[12] = tested on: Human immunodeficiency virus 1; test: Binding affinity to HIV1 gp41 NHR target surrogate T21 assessed as sedimentation coefficient incubated for 30 mins measured for 0.16 to 7 hrs by Sedimentation velocity analysis; conditions: time 0.56-7.5 hrs
[13] = tested on: Human immunodeficiency virus 1; test: Inhibition of HIV-1 replication assessed as inhibition of gp41 six-helix bundle formation between T21 and CP32 incubated for 30 mins followed by CP32 addition measured after 30 mins by N-PAGE analysis; format: functional; conditions: dose <= 120.0 µM, time 1.0 hrs, DDE = dose-dependent effect
[14] = Selectivity ratio of EC50 for antiviral activity against T20-resistant HIV-1 V38E/N42S to EC50 for antiviral activity against T20-sensitive HIV-1 D36G; format: functional
[15] = Selectivity ratio of EC50 for antiviral activity against T20-resistant HIV-1 V38A/N42T to EC50 for antiviral activity against T20-sensitive HIV-1 D36G; format: functional
[16] = tested on: Human immunodeficiency virus 1; test: Binding affinity to HIV1 gp41 NHR target surrogate T21 at 50 uM incubated for 30 mins by N-PAGE analysis
[17] = tested on: Human immunodeficiency virus 1; test: Binding affinity to HIV1 gp41 NHR target surrogate T21 assessed as binding constant, K by isothermal titration calorimetry

| EC50 [1] [nM] | EC50 [7] [nM] | Molecule | Activity [2] [%] | Activity [3] [%] | Activity [4] [%] | Tm [5] [°C] | Tm [6] [°C] | further results |
| --- | --- | --- | --- | --- | --- | --- | --- | --- |
| > 10000 | – | Ac-WEEWDKKIEELIKKSEELIKKIEEQIKK-NH2 | – | – | – | – | – | – |
| 64.5 | – | Ac-QEESIKKWEEWSKKIEELIKKSEELIKKIEEQIKK-NH2 | 63 | 92 | 100 | 52 | 74 | Activity [16]: Active; K [17]: 1.59 10^5/M |
| – | 5.22 | CC[C@H](C)[C@H](NC(=O)[C@H](CCC(N)=O)NC(=O)[C@H](CCC(=O)O)NC(=O)[C@H](CCC(=O)O)NC(=O)[C@@H](NC(=O)[C@H](CCCCN)NC(=O)[C@H](CCCCN)NC(=O)[C@@H](NC(=O)[C@H](CC(C)C)NC(=O)[C@H](CCC(=O)O)NC(=O)[C@H](CCC(=O)O)NC(=O)[C@H](CO)NC(=O)[C@H](CCCCN)NC(=O)[C@H](CCCCN)NC(=O)[C@@H](NC(=O)[C@H](CC(C)C)NC(=O)[C@H](CCC(=O)O)NC(=O)[C@H](CCC(=O)O)NC(=O)[C@@H](NC(=O)[C@H](CCCCN)NC(=O)[C@H](CCCCN)NC(=O)[C@H](CO)NC(=O)[C@H](Cc1c[nH]c2ccccc12)NC(=O)[C@H](CCC(=O)O)NC(=O)[C@H](CCC(=O)O)NC(=O)[C@H](Cc1c[nH]c2ccccc12)NC(=O)[C@H](CCCCN)NC(=O)[C@H](CCCCN)NC(=O)[C@@H](NC(=O)[C@H](CO)NC(=O)[C@H](CCC(=O)O)NC(=O)[C@H](CCC(=O)O)NC(=O)[C@H](CCC(N)=O)NC(C)=O)[C@@H](C)CC)[C@@H](C)CC)[C@@H](C)CC)[C@@H](C)CC)[C@@H](C)CC)C(=O)N[C@@H](CCCCN)C(=O)N[C@@H](CCCCN)C(=O)NCCOCCOCCOCCOCCOCCOCCOCCOCCOCCOCCOCCOCCC(=O)N[C@@H](CS)C(=O)O[C@H]1CC[C@@]2(C)C(=CC[C@H]3[C@@H]4CC[C@H]([C@H](C)CCCC(C)C)[C@@]4(C)CC[C@@H]32)C1 (Ac-QEESIKKWEEWSKKIEELIKKSEELIKKIEEQIKK[PEG12]C-{O(cholesteryl)}) | – | – | – | – | – | – |
| 65.7 | – | Ac-QEENIKKWEEWDKKIEELIKKSEELIKKIEEQIKK-NH2 | – | – | – | – | – | – |
| – | 44.4 | CC[C@H](C)[C@H](NC(=O)[C@H](CCC(N)=O)NC(=O)[C@H](CCC(=O)O)NC(=O)[C@H](CCC(=O)O)NC(=O)[C@@H](NC(=O)[C@H](CCCCN)NC(=O)[C@H](CCCCN)NC(=O)[C@@H](NC(=O)[C@H](CC(C)C)NC(=O)[C@H](CCC(=O)O)NC(=O)[C@H](CCC(=O)O)NC(=O)[C@H](CO)NC(=O)[C@H](CCCCN)NC(=O)[C@H](CCCCN)NC(=O)[C@@H](NC(=O)[C@H](CC(C)C)NC(=O)[C@H](CCC(=O)O)NC(=O)[C@H](CCC(=O)O)NC(=O)[C@@H](NC(=O)[C@H](CCCCN)NC(=O)[C@H](CCCCN)NC(=O)[C@H](CO)NC(=O)[C@H](Cc1c[nH]c2ccccc12)NC(=O)[C@H](CCC(=O)O)NC(=O)[C@H](CCC(=O)O)NC(=O)[C@H](Cc1c[nH]c2ccccc12)NC(=O)[C@H](CCCCN)NC(=O)[C@H](CCCCN)NC(=O)[C@@H](NC(=O)[C@H](CO)NC(=O)[C@H](CCC(=O)O)NC(=O)[C@H](CCC(=O)O)NC(=O)[C@H](CCC(N)=O)NC(C)=O)[C@@H](C)CC)[C@@H](C)CC)[C@@H](C)CC)[C@@H](C)CC)[C@@H](C)CC)C(=O)N[C@@H](CCCCN)C(=O)N[C@@H](CCCCN)C(=O)NCCOCCOCCOCCOCCC(=O)N[C@@H](CS)C(=O)O[C@H]1CC[C@@]2(C)C(=CC[C@H]3[C@@H]4CC[C@H]([C@H](C)CCCC(C)C)[C@@]4(C)CC[C@@H]32)C1 (Ac-QEESIKKWEEWSKKIEELIKKSEELIKKIEEQIKK[PEG4]C-{O(cholesteryl)}) | – | – | – | – | – | – |

| Molecule | EC50 [1] [nM] | EC50 [7] [nM] | Activity [2] [%] | Activity [3] [%] | Activity [4] [%] | Tm [5] [°C] | Tm [6] [°C] | further results |
| --- | --- | --- | --- | --- | --- | --- | --- | --- |
| CC[C@H](C)[C@H](NC(=O)[C@H](CCC(N)=O)NC(=O)[C@H](CCC(=O)O)NC(=O)[C@H](CCC(=O)O)NC(=O)[C@@H](NC(=O)[C@H](CCCCN)NC(=O)[C@H](CCCCN)NC(=O)[C@@H](NC(=O)[C@H](CC(C)C)NC(=O)[C@H](CCC(=O)O)NC(=O)[C@H](CCC(=O)O)NC(=O)[C@H](CO)NC(=O)[C@H](CCCCN)NC(=O)[C@H](CCCCN)NC(=O)[C@@H](NC(=O)[C@H](CC(C)C)NC(=O)[C@H](CCC(=O)O)NC(=O)[C@H](CCC(=O)O)NC(=O)[C@@H](NC(=O)[C@H](CCCCN)NC(=O)[C@H](CCCCN)NC(=O)[C@H](CO)NC(=O)[C@H](Cc1c[nH]c2ccccc12)NC(=O)[C@H](CCC(=O)O)NC(=O)[C@H](CCC(=O)O)NC(=O)[C@H](Cc1c[nH]c2ccccc12)NC(=O)[C@H](CCCCN)NC(=O)[C@H](CCCCN)NC(=O)[C@@H](NC(=O)[C@H](CO)NC(=O)[C@H](CCC(=O)O)NC(=O)[C@H](CCC(=O)O)NC(=O)[C@H](CCC(N)=O)NC(C)=O)[C@@H](C)CC)[C@@H](C)CC)[C@@H](C)CC)[C@@H](C)CC)[C@@H](C)CC)C(=O)N[C@@H](CCCCN)C(=O)N[C@@H](CCCCN)C(=O)NCCOCCOCCOCCOCCOCCOCCOCCOCCOCCOCCOCCOCCOCCOCCOCCOCCOCCOCCOCCOCCOCCOCCOCCOCCC(=O)N[C@@H](CS)C(=O)O[C@H]1CC[C@@]2(C)C(=CC[C@H]3[C@@H]4CC[C@H]([C@H](C)CCCC(C)C)[C@@]4(C)CC[C@@H]32)C1 (Ac-QEESIKKWEEWSKKIEELIKKSEELIKKIEEQIKK[PEG24]C-{O(cholesteryl)}) | – | 5.21 | 56 | 81 | 94 | 50 | 68 | Activity [8]: Non-Toxic; Activity (MT2): Non-Toxic; EC50 [9]: 1.62 nM; EC50 [10]: 5.07 nM; EC50 [11]: 2.38 nM; S20,w [12]: 2.43 S; inhibition [13]: Dde; Ratio EC50 [14]: 3.1; Ratio EC50 [15]: 1.5 |
